Laboratory results from patent publication US20260108572A1, “ALZHEIMER-TYPE DEMENTIA SUPPRESSANT, AND METHOD FOR PRODUCING SAME” (Sakamoto Yakusouen, LLC, priority 2022, published 2026).

Key:
[1] = biological target: T1, Aβ derived from human (Human, 1-42) (Homo sapiens, UniProt P05067); assay: Aβ accumulation inhibitory activity using Thioflavin-T; format: biochemical; conditions: pure compounds, similarly to Example 5(1); Aβ 25 μM, 24 hours
T1 construct: Aβ derived from human (“Human, 1-42” manufactured by Peptide Institute); purchased Peptide Institute
Experimental: The Aβ accumulation inhibitory activities of each fraction were determined using Thioflavin-T in the following condition. Aβ derived from human (“Human, 1-42” manufactured by Peptide Institute) was dissolved in 0.1% ammonia water in a concentration of 250 μM. Each of the fraction samples was added to a phosphate buffer (0.05 M sodium phosphate+0.1 M sodium chloride, pH7.4) (hereinafter abbreviated as “PBS”) in the final concentrations of 0.01 g/L, 0.05 g/L and 0.1 g/L. The Aβ solution was added thereto in the final concentration of 25 μM for the reaction at 37° C. A part of the reaction mixture was collected 0, 4, 8 and 24 hours after the start of the reaction, and 2.5 μL of the collected reaction mixture was added to each well of a 96 well plate for fluorescence measurement (“Nunc FluoroNunc plate” manufactured by Thermo Fisher Science). Then, Thioflavin-T solution was dissolved in 50 mM glycine-sodium hydroxide buffer (pH 8.5), and the solution (250 μL) was added to each well. The fluorescence intensity emitted when the B sheet of the Aβ fiber was labeled with Thioflavin-T was measured. The fluorescence intensity was measured using a microplate reader (“Wallac 1420 ARVO MX” manufactured by Perkin Elmer) in the condition of a wavelength of Excitation: 420 nm and Emission: 485 nm.

[2] = biological target: T2, human islet amyloid polypeptide (hIAPP) (Homo sapiens, UniProt P10997); assay: hIAPP accumulation inhibitory activity using Thioflavin-T; format: biochemical; conditions: compounds at 1, 10, 100 μM in PBS pH7.4
T2 construct: hIAPP manufactured by Karebay Biochem was used in place of Aβ; purchased Karebay Biochem
T2 sequence (P10997 34-70 limits assumed): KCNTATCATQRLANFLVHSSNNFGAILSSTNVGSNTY

[3] = system: senescence-accelerated model mouse SAM-P8; assay: Genome expression (RNA sequencing, PCA) in the whole brain of senescence-accelerated model mice after oral administration; format: in vivo; conditions: oral 7 days: donepezil 5 mg/kg, acteoside 100 mg/kg, SSa extract powder 500 mg/kg, brain after 30 days
Experimental: Seven-week-old male normal aged mouse SAM-R and male senescence-accelerated model mouse SAM-P8 that were respectively obtained from Japan SLC were arbitrarily divided into two groups of 10 mice each and acclimatized for 1 week. Then, 500 mg/kg of SSa extract powder was orally administered to SAM-R SSa extract powder-administered group and SAM-P8 SSa extract powder-administered group for 7 days. Each group of mice other than the above groups was given normal feed and water freely. Next, after the mice were reared for 30 days, the mice were humanely killed by anesthesia. The whole brain was taken out and preserved at −80° C. by the genome analysis.
Next, chloroform (0.2 mL) was added thereto, and the mixture was stirred well for 15 seconds and then stood still for 2 to 3 minutes. […]
The specific mRNA was concentrated from the obtained total RNA using an RNA sample preparation kit (“TruSeq Standard mRNA Library Prep kit” manufactured by Illumina). […] Then, the sequences of the cDNA library were determined using a next-generation DNA sequencer (“NoVaSeq6000” manufactured by Illumina) in the conditions of 100 bp, Paired-end and 40,000,000 read per 1 sample.
STAR>cufflinks>cuffdif analysis was carried out to compare the analysis results. GRCm38.92 was used as a mouse genome database, and the gene expression amount in gene level and in exon level as the component element of the gene was analyzed. […]

T1 sequence (P05067 672-713 limits assumed): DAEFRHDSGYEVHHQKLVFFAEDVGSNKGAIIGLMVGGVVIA

Compound	IC50 [1]	IC50 [2]	Difference of expression pattern from the control group on PC1 axis (PCA, gene and exon level) [3]
COc1cc2oc(-c3ccc(O)c(O)c3)cc(=O)c2c(O)c1O[C@@H]1O[C@H](CO)[C@@H](O)[C@H](O)[C@H]1O [Pedaliin, pedaliin]	2.8 µM	4.2 µM	–
C[C@@H]1O[C@@H](O[C@@H]2[C@@H](O)[C@H](OCCc3ccc(O)c(O)c3)O[C@H](CO)[C@H]2OC(=O)/C=C/c2ccc(O)c(O)c2)[C@H](O)[C@H](O)[C@H]1O [Acteoside, acteoside]	13 µM	21 µM	not a large difference
